Test results taken from PubChem BioAssay (NCI).
Several values for one entry are separate records, joined by “and”; a condition that tells them apart may be missing. Equal entries are not always repeated.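 How tested: cells in 96-well plates exposed to compound for 48 hours at five concentrations. GI50: concentration for 50% inhibition of growth. TGI is the concentration that stops growth completely.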

Tests used:
Assay in all cases: growth of human tumour cells (NCI), 48 h
OVCAR-5 ovarian = system: OVCAR-5 ovarian
NCI-H522 lung = system: NCI-H522 lung
ACHN renal = system: ACHN renal
NCI/ADR-RES ovarian = system: NCI/ADR-RES ovarian
SW-620 colon = system: SW-620 colon
HS 578T breast = system: HS 578T breast
HT29 colon = system: HT29 colon
DU-145 prostate = system: DU-145 prostate
CCRF-CEM leukemia = system: CCRF-CEM leukemia
SR leukemia = system: SR leukemia

Row | Compound | GI50 (OVCAR-5 ovarian) | TGI (OVCAR-5 ovarian) | GI50 (NCI-H522 lung) | TGI (NCI-H522 lung) | GI50 (ACHN renal) | TGI (ACHN renal) | GI50 (NCI/ADR-RES ovarian) | TGI (NCI/ADR-RES ovarian) | GI50 (SW-620 colon) | TGI (SW-620 colon) | GI50 (HS 578T breast) | TGI (HS 578T breast) | GI50 (HT29 colon) | TGI (HT29 colon) | GI50 (DU-145 prostate) | TGI (DU-145 prostate) | GI50 (CCRF-CEM leukemia) | TGI (CCRF-CEM leukemia) | GI50 (SR leukemia) | TGI (SR leukemia)
1 | Nc1ncc(-c2cnn(C3CCNCC3)c2)cc1-c1nc2ccccc2o1 | 3.28 µM | 11.5 µM | 0.757 µM | 2.4 µM | 0.86 µM | 2.71 µM | 3.47 µM | 13.4 µM | 1.09 µM | 2.38 µM | 1.75 µM | 4.28 µM | 0.441 µM | 2.63 µM | 1.75 µM | 8.86 µM | 0.235 µM | 0.677 µM | 0.266 µM | 1.09 µM
2 | CNC(=O)c1ccc(Nc2ncc(C(F)(F)F)c(NCc3nccnc3N(C)S(C)(=O)=O)n2)cc1 | 2.18 µM and 1.98 µM and 1.93 µM | > 10 µM and 9.03 µM and 9.56 µM | 1.97 µM and 2.52 µM and 2.76 µM | 7.06 µM and 13.3 µM and 7.4 µM | 1.67 µM and 1.77 µM and 1.5 µM | > 10 µM and 9.44 µM and 8.18 µM | 8.27 µM and 8.53 µM | > 10 µM and 25.9 µM and 27.1 µM | 2.82 µM and 3.21 µM and 2.74 µM | > 10 µM and 9.82 µM and 11.7 µM | 0.283 µM and 2.44 µM and 1.5 µM | 7.19 µM and 9.3 µM and 8.29 µM | 3.41 µM and 2.75 µM and 3.21 µM | > 10 µM and 8.63 µM and 11.3 µM | 2.6 µM and 2.1 µM and 2.75 µM | > 10 µM and 10.9 µM and 15.9 µM | 3.27 µM and 3.21 µM and 3.36 µM | – | 1.91 µM and 1.33 µM and 2.39 µM | 8.17 µM and 7.7 µM and 9.42 µM
3 | O=C1C(=O)c2cc([N+](=O)[O-])ccc2-c2ccccc21 | 1.82 µM | 3.36 µM | 1.28 µM | 2.68 µM | 1.6 µM | 2.96 µM | 1.66 µM | 3.33 µM | 1.54 µM | 2.98 µM | 1.68 µM | 4.49 µM | 1.95 µM | 3.9 µM | 1.74 µM | 3.16 µM | – | – | – | –
4 | C=C(C)C(=O)NC(N)=NC#N | – | 304 µM | 2.26 µM | 16.4 µM and 5.88 µM | 68 µM | 271 µM | 125 µM | > 83.8 µM and 267 µM | 41 µM | 39.4 µM and 170 µM | – | 797 µM | 102 µM | 248 µM | 145 µM | 291 µM | – | 59.9 µM and 60.5 µM | – | 87.9 µM and 132 µM
5 | CC(=O)[O-].CC(=O)[O-].[Mn+2].c1ccc(/C(=N\Nc2ccccn2)c2ccccn2)cc1 | – | – | 0.0289 µM | 0.277 µM | – | 4.44 µM | 0.0251 µM | 0.0989 µM | 0.0535 µM | 14.5 µM | – | 70.2 µM | 0.00276 µM | 11.3 µM | – | 11.6 µM | – | 0.402 µM | – | –
6 | COc1ccc(-c2coc3ncnc(N)c23)cc1 | > 25 µM | > 25 µM | > 25 µM | > 25 µM | > 25 µM | > 25 µM | > 25 µM | > 25 µM | > 25 µM | > 25 µM | > 25 µM | > 25 µM | > 25 µM | > 25 µM | > 25 µM | > 25 µM | > 25 µM | > 25 µM | > 25 µM | > 25 µM
7 | CC1=CC2=C(OCO1)C(=O)c1ccccc1C2=O | – | 10.8 µM | – | 8.87 µM | – | 18.6 µM | – | 9.94 µM | – | 21.6 µM | – | 4.25 µM | – | 16.8 µM | – | 3.67 µM | – | 45.7 µM | – | 41.7 µM
8 | COc1cc2[nH]c(C(=O)c3cc(OC)c(OC)c(OC)c3)c(N)c2cc1C#CCO | 3.63 µM | > 100 µM | – | – | 0.515 µM | > 100 µM | 2.22 µM | 32.6 µM | 0.294 µM | > 100 µM | 0.345 µM | 72.3 µM | 0.353 µM | > 100 µM | – | – | 0.309 µM | > 100 µM | 0.284 µM | 19.8 µM
9 | [N-]=[N+]=NC1(N=[N+]=[N-])C(=O)NN=C(c2ccccc2)C1=O (stereo not given) | – | – | – | > 100 µM | – | > 100 µM | – | > 100 µM | – | > 100 µM | – | > 100 µM | – | > 100 µM | – | > 100 µM | – | 83.9 µM | – | 75.5 µM
10 | CN1CCN(C(=O)c2ccc(NC(=O)Nc3ccc(N(C)c4ccnc(Nc5ccc(CS(C)(=O)=O)cc5)n4)cc3)cc2)CC1 | > 25 µM | > 25 µM | 7.65 µM | > 25 µM | > 25 µM | > 25 µM | > 25 µM | > 25 µM | 11 µM | > 25 µM | 4.62 µM | > 22.1 µM | 11.4 µM | > 25 µM | 8.78 µM | > 25 µM | 7.07 µM | > 25 µM | > 12.7 µM | > 25 µM
11 | CCc1ccc(C2=C/C(=C/c3ccc(Cl)cc3)C(=O)N2CCc2ccc(S(N)(=O)=O)cc2)cc1 | 2.18 µM | 5.7 µM | 2.55 µM | 7.39 µM | 1.94 µM | 4.23 µM | 4.6 µM | 41.4 µM | 3 µM | 11.8 µM | 3.05 µM | 10.9 µM | 2.22 µM | 4.58 µM | 3.77 µM | 15.4 µM | 3.44 µM | 32.8 µM | – | –
12 | O=S(=O)(NCCNc1cc(-c2cn(-c3ccccc3)nc2-c2cccc(O)c2)ccn1)c1ccc(C(F)(F)F)cc1 | 2.53 µM | 13.7 µM | 1.67 µM | 3.8 µM | – | – | 3.21 µM | 16.6 µM | 3.55 µM | 12.9 µM | 2.31 µM | 19.4 µM | 2.04 µM | 5.44 µM | 4.44 µM | 15.9 µM | 3.27 µM | 8.05 µM | 1.31 µM | 4.29 µM
13 | C#C[C@@]1(O)[C@@H](CO)O[C@@H](n2cc(Cl)c3c(N)ncnc32)[C@@H]1O | 0.425 µM | > 84.2 µM | 0.134 µM | 0.455 µM | – | – | 0.0546 µM | 0.777 µM | 0.0709 µM | – | 1.07 µM | > 26.5 µM | 0.0436 µM | – | 0.131 µM | > 52 µM | 0.248 µM | > 100 µM | 0.073 µM | > 100 µM
14 | CCCCCCCCN(CCCCCCCC)C(=N)c1ccnc2ccccc12 | 1.5 µM | 3.05 µM | 1.48 µM | 2.92 µM | 1.37 µM | 2.78 µM | 1.15 µM | 2.5 µM | – | – | 1.71 µM | 4.81 µM | 0.292 µM | 1.06 µM | 1.08 µM | 2.31 µM | 0.466 µM | 2.2 µM | – | –
15 | COc1ccc(NC(=O)C(=O)C(CC2C(=O)NC(=S)NC2=O)C(=O)c2ccc3ccccc3c2)c([N+](=O)[O-])c1 (stereo not given) | – | > 100 µM | – | > 100 µM | – | > 100 µM | – | > 100 µM | – | > 100 µM | – | > 100 µM | – | > 100 µM | – | > 100 µM | – | > 100 µM | – | –
